Experiment: Nucleation induction time of ASA / ACM with PEGDA or PEGDA-co-AM microgels in 38/62 ethanol/water
Type: physicochemical
Conditions: for Average nucleation induction time τ (stretched exponential fit): ASA S=2.1; for τ1 (two-exponential fit) / τ2 (two-exponential fit): ASA; for optimum mesh size for inducing ASA nucleation: PEGDA particles
Description: Nucleation kinetics of model compounds was investigated by measuring the nucleation induction time probability distribution. Nucleation induction time is generally time elapsed prior to the formation of a detectable amount of the new crystalline phase. It is a useful indicator of the surface nucleation activity because it can be dramatically shortened when the presence of an interface lowers the free energy barrier of nucleation. Due to the stochastic nature of nucleation events, a large number of experiments were performed to obtain the probability distribution of nucleation induction time. To obtain the average induction time τ, statistical analysis on the induction time data was conducted based on the understanding that nucleation follows a Poisson distribution. According to Poisson statistics, the probability for a nucleation event to occur beyond time t is P=exp(−t/τ), which implies that the fraction of vials without nucleation at time t exponentially decays as a function of time, where the scaling factor for time is the average induction time.
For determining the statistical analysis of aspirin nucleation induction time with PEGDA particles of various mesh sizes (particles denoted by Mn), 1.9 mL of 38 mg/ml ASA solution in 38/62 ethanol/water (v/v) with 15 μg/mL PEGDA particles was cooled at a rate of 5° C./min from 35° C. to 15° C. to achieve a supersaturation of 2.1. The solution was stirred at 700 rpm. The onset of nucleation was detected by an IR probe which measures the transmission signal through the solution. A total of 10 vials were cycled for 5-10 times to yield 50-100 nucleation induction time measurements for the statistical analysis.
The nucleation rate, J, is given by J=1/τV, where τ the average induction time (Table 1) and V the volume of solution. For this equation to be valid, the assumption is that the crystal growth rate is much faster than the nucleation rate, which is the case for ASA. […] Other crystallization conditions were kept the same.
[…] The solution was stirred at 700 rpm. The onset of nucleation was detected by an IR probe which measures the transmission signal through the solution. A total of 10 vials were cycled for 5-10 times to yield 50-100 nucleation induction time data for the statistical analysis.
Effect of polymer gels on nucleation induction time statistics: To evaluate the impact of polymer-solute interactions on nucleation kinetics, induction times of ASA and ACM were measured with microgels of a series average mesh sizes before and after chemical modification suspended in respective supersaturated solutions. […] For each system, a large number of experiments (50-100) were conducted to obtain the induction time probability distribution. The nucleation induction time generally follows the Poisson distribution. However, deviations can occur, as observed in this study, when there is more than one type of nucleation sites in a sample, giving rise to multiple Poisson processes with different characteristic time scales.
For samples with PEGMDA microgels, the nucleation induction time distributions reported in previous work can be faithfully described by stretched exponentials (Tables 5 and 6), P=exp[−(t/τ)^β], where P is the probability to observe no crystallization event within time t, τ the average induction time. The stretched exponential exponent β served as a measure for the spread of time scales characterizing the nucleation process, or the distribution of kinetic barriers arisen from the heterogeneity of the system. Such heterogeneity can be attributed to the heterogeneity of the polymer microstructure identified using SANS, which resulted from a distribution of nucleation sites arising from spatial variations in both the mesh size and chemical composition of the hydrogel at nanometer length scales. Note that β varies with the average mesh size of the microgel. […]

[1] = PEGDA-co-AM microgels M 130 g/mol
[2] = PEGDA-co-AM microgels M 200 g/mol
[3] = PEGDA-co-AM microgels M 400 g/mol
[4] = PEGDA-co-AM microgels M 575 g/mol
[5] = PEGDA-co-AM microgels M 700 g/mol

## CC(=O)Oc1ccccc1C(=O)O [aspirin]
ASA S = 2.1, Bulk (no particles), 38/62 ethanol/water
  average nucleation induction time τ: ∞
ASA S = 2.1, PEGDA microparticles Mn 130 g/mol, 38/62 ethanol/water
  average nucleation induction time τ: ∞
ASA S = 2.1, PEGDA microparticles Mn 200 g/mol, 38/62 ethanol/water
  average nucleation induction time τ: 910 ± 40 min
ASA S = 2.1, PEGDA microparticles Mn 400 g/mol, 38/62 ethanol/water
  average nucleation induction time τ: 60 min
ASA S = 2.1, PEGDA microparticles Mn 400 g/mol, 38/62 ethanol/water, listed as ASA
  average nucleation induction time τ: 63 ± 3 min
ASA S = 2.1, PEGDA microparticles Mn 575 g/mol, 38/62 ethanol/water
  average nucleation induction time τ: 1900 ± 100 min
ASA S = 2.1, PEGDA microparticles Mn 700 g/mol, 38/62 ethanol/water
  average nucleation induction time τ: 6600 ± 1100 min
ASA S = 3.3, Bulk (no particles), 38/62 ethanol/water
  average nucleation induction time τ: 2500 ± 600 min
ASA S = 3.3, PEGDA microparticles Mn 130 g/mol
  average nucleation induction time τ: 330 ± 60 min
ASA S = 3.3, PEGDA microparticles Mn 200 g/mol
  average nucleation induction time τ: 52 ± 3 min
ASA S = 3.3, PEGDA microparticles Mn 400 g/mol
  average nucleation induction time τ: 123 ± 7 min
ASA S = 3.3, PEGDA microparticles Mn 700 g/mol
  average nucleation induction time τ: 240 ± 20 min
Bulk / PEGDA microgels M 130 g/mol
  Average nucleation induction time τ (stretched exponential fit): Not detectable
PEGDA microgels M 200 g/mol
  Average nucleation induction time τ (stretched exponential fit): 1052 min
PEGDA microgels M 400 g/mol
  Average nucleation induction time τ (stretched exponential fit): 66.7 min
PEGDA microgels M 575 g/mol
  Average nucleation induction time τ (stretched exponential fit): 3500 min
PEGDA microgels M 700 g/mol
  Average nucleation induction time τ (stretched exponential fit): 210000 min
[1]
  τ1 (two-exponential fit): 170 min
  τ2 (two-exponential fit): 4900 min
[2]
  τ1 (two-exponential fit): 21 min
  τ2 (two-exponential fit): 99 min
[3]
  τ1 (two-exponential fit): 39 min
  τ2 (two-exponential fit): 400 min
[4]
  τ1 (two-exponential fit): 51 min
  τ2 (two-exponential fit): 470 min
[5]
  τ1 (two-exponential fit): 33 min
  τ2 (two-exponential fit): 720 min
8° C, higher supersaturation (3.4)
  optimum mesh size for inducing ASA nucleation: 10 Å
15° C, supersaturation 2.1
  optimum mesh size for inducing ASA nucleation: approximately 15 Å
PEGDA-co-AM vs PEGDA microgels
  promotion of nucleation kinetics when AM co-monomer was introduced into the PEGDA matrix: up to four orders of magnitude
Vs bulk, Table 2
  best enhancement in nucleation kinetics by addition of PEGDA particles: many orders of magnitudes

Source: patent US9138659B2, “Compositions, methods, and systems relating to controlled crystallization and/or nucleation of molecular species” (Massachusetts Institute of Technology, priority 2010, dated 2015)
